Assay [1] concerns the target T1, Human TRPA1 expressing CHO cells (Homo sapiens, UniProt O75762).
T1 construct: expressed in transfected cells; host or cells: CHO cells (G-418 selection)
Kind of assay: 45Calcium uptake assay, inhibition of AITC induced calcium uptake (human). In kind it is cell-based. The settings on record: for inhibition at 1 µM: read-out: Percentage inhibition at 1.0 μM; for inhibition at 10 µM: read-out: Percentage inhibition at 10.0 μM. Here is the method: (§1) Screening for TRPA1 Antagonist Using the ^45Calcium Uptake Assay:
(§2) The inhibition of TRPA1 receptor activation was measured as inhibition of allyl isothiocyanate (AITC) induced cellular uptake of radioactive calcium.
(§3) Test compounds were dissolved in 100% DMSO to prepare 10 mM stock and then diluted using plain medium with 0.1% BSA and 1.8 mM CaCl2 to get the desired concentration. The final concentration of DMSO in the reaction was 0.5% (v/v). […] Rat TRPA1 expressing CHO cells were grown in F-12 DMEM medium with 10% FBS, 1% penicillin-streptomycin solution, and 400 μg/ml of Zeocin. […] Cells were treated with the test compounds for 10 minutes followed by the addition of AITC at a final concentration of 30 μM (for human TRPA1) and/or 10 μM (for rat TRPA1) and 5 μCi/ml ^45Ca^+2 for 3 minutes. Cells were washed and lysed using a buffer containing 1% Triton X-100, 0.1% deoxycholate and 0.1% SDS. Radioactivity in the lysate was measured in a Packard TopCount after addition of liquid scintillant.
(§4) Concentration response curves were plotted as a % of maximal response obtained in the absence of test antagonist. IC50 values can be calculated from concentration response curve by nonlinear regression analysis using GraphPad PRISM software.

Assay [2] concerns the target T2, Rat TRPA1 expressing CHO cells (Rattus norvegicus, UniProt Q6RI86).
T2 construct: expressed in transfected cells; host or cells: CHO cells (Zeocin selection)
The assay is described as follows: 45Calcium uptake assay, inhibition of AITC induced calcium uptake (rat). The conditions noted are these: for inhibition at 1 µM: read-out: Percentage inhibition at 1.0 μM; for inhibition at 10 µM: read-out: Percentage inhibition at 10.0 μM; for IC50: read-out: Rat IC50 value (Range). In kind it is cell-based. Here is the method: as §1, §2, §3, §4

Where [3] appears, read: human TRPA1 CHO cells, AITC 30 μM, compound 1.0 μM.
Where [4] appears, read: human TRPA1 CHO cells, AITC 30 μM, compound 10.0 μM.
Setting [5] is: human TRPA1 CHO cells, AITC 30 μM, read-out: Human IC50 value (Range).
The mark [6] stands for this setting: rat TRPA1 CHO cells, AITC 10 μM, compound 1.0 μM.
[7] abbreviates: rat TRPA1 CHO cells, AITC 10 μM, compound 10.0 μM.
Where [8] appears, read: rat TRPA1 CHO cells, AITC 10 μM.

Read-outs that look alike come from different tables or passages of the source.

T1 sequence (O75762 whole entry): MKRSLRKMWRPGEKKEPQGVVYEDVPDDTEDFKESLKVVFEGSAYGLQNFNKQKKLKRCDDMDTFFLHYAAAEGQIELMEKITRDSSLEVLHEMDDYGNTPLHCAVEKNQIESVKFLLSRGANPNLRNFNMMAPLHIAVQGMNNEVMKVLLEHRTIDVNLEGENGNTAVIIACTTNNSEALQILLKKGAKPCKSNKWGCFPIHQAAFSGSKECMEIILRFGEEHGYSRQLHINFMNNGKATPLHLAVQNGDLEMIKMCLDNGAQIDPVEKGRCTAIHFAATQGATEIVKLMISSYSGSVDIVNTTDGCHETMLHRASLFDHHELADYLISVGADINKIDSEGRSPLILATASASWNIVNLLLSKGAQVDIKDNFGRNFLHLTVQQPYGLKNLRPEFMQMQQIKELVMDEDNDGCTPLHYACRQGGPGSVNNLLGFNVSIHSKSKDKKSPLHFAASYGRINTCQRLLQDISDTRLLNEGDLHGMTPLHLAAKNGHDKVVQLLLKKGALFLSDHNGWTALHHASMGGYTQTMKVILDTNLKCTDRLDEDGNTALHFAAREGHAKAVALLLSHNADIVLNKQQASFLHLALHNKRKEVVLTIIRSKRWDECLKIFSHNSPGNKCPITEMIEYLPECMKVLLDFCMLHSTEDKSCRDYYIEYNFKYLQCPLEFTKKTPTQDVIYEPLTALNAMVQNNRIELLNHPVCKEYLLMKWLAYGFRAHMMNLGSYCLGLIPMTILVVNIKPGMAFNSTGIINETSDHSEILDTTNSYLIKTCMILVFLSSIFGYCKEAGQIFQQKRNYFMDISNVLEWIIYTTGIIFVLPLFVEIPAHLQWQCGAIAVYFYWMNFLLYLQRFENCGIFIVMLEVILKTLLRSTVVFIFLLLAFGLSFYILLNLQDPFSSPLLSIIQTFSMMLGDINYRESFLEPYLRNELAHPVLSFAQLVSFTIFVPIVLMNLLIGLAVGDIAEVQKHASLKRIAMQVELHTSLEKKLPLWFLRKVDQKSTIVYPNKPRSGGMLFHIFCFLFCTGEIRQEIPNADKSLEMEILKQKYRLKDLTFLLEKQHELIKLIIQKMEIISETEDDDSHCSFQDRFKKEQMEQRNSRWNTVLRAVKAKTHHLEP
T2 sequence (Q6RI86 whole entry): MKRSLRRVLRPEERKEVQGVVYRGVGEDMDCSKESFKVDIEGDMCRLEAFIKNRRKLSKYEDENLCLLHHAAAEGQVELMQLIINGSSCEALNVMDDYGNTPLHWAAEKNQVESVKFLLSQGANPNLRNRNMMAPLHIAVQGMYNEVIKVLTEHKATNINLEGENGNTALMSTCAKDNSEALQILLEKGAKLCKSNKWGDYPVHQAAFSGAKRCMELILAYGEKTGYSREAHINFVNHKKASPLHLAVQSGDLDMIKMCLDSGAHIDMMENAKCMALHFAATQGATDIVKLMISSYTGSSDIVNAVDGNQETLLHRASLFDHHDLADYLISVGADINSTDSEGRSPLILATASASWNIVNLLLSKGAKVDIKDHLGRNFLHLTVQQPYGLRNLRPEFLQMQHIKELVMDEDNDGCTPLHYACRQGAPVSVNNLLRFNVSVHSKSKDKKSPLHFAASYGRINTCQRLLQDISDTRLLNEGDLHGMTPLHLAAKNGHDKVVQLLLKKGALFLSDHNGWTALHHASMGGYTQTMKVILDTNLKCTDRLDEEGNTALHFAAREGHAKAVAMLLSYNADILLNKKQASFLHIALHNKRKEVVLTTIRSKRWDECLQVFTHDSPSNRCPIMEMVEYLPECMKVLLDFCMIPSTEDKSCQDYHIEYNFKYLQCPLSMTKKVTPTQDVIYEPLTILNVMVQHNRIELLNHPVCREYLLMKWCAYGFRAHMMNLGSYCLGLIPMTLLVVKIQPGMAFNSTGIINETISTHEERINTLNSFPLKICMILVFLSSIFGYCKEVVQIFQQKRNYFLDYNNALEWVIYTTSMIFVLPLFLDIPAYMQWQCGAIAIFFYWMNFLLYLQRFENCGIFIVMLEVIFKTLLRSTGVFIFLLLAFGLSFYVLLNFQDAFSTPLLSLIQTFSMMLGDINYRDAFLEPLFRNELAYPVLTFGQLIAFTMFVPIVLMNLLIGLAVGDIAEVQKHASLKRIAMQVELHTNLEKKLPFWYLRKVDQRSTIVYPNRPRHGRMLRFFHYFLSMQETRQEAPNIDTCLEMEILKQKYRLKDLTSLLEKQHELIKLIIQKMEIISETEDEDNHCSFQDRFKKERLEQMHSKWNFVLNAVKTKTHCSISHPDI

For `Cn1c(=O)c2c(CC(=O)Nc3nc(C(F)(F)F)cs3)csc2n(C)c1=O` [Example 1, 2-(1,3-Dimethyl-2,4-dioxo-1,2,3,4-tetrahydrothieno[2,3-d]pyrimidin-5-yl)-N-[4-(trifluoromethyl)-1,3-thiazol-2-yl]acetamide], the inhibition at 1 µM in assay [1] (setting [3]) came out at 13.2%. Also, the inhibition at 10 µM in assay [1] (setting [4]) came to 46%.
`Cn1c(=O)c2c(CC(=O)Nc3nc(-c4ccc(Cl)cc4)cs3)csc2n(C)c1=O` [Example 2, N-[4-(4-Chlorophenyl)-1,3-thiazol-2-yl]-2-(1,3-dimethyl-2,4-dioxo-1,2,3,4-tetrahydrothieno[2,3-d]pyrimidin-5-yl)acetamide]: the values for the inhibition at 1 µM in assay [1] (setting [3]) and in assay [2] (setting [6]) were 99% and 91.4%, respectively. Also, the inhibition at 10 µM was 98.8% in assay [1] (setting [4]) and 99.3% in assay [2] (setting [7]). Besides, the IC50 in assay [1] (setting [5]) lay within 0.05 to 0.5 µM.
On the same counts, the results for `Cn1c(=O)c2c(CC(=O)Nc3nc(-c4cccc(OC(F)(F)F)c4)cs3)csc2n(C)c1=O` [Example 3, 2-(1,3-Dimethyl-2,4-dioxo-1,2,3,4-tetrahydrothieno[2,3-d]pyrimidin-5-yl)-N-{4-[3-(trifluoromethoxy)phenyl]-1,3-thiazol-2-yl}acetamide] are 89%, 82.4%, 98.5%, 99.7% and 0.05 to 0.5 µM.
On to `CC(C)Cc1ccc(-c2csc(NC(=O)Cc3csc4c3c(=O)n(C)c(=O)n4C)n2)cc1` [Example 4, 2-(1,3-Dimethyl-2,4-dioxo-1,2,3,4-tetrahydrothieno[2,3-d]pyrimidin-5-yl)-N-[4-(4-isobutylphenyl)-1,3-thiazol-2-yl]acetamide], for which the inhibition at 1 µM in assay [1] (setting [3]) came to 29.1%. The inhibition at 10 µM in assay [1] (setting [4]) was 99.5%.
With `Cn1c(=O)c2c(CC(=O)Nc3nc(-c4ccc(C(F)(F)F)c(F)c4)cs3)csc2n(C)c1=O` [Example 5, 2-(1,3-Dimethyl-2,4-dioxo-1,2,3,4-tetrahydrothieno[2,3-d]pyrimidin-5-yl)-N-{4-[3-fluoro-4-(trifluoromethyl)phenyl]-1,3-thiazol-2-yl}acetamide], the inhibition at 1 µM in assay [1] (setting [3]) worked out at 95.3%. In addition, the inhibition at 10 µM in assay [1] (setting [4]) was 99.9%. Also, the IC50 in assay [1] (setting [5]) and in assay [2] (setting [8]) was under 0.05 µM in each case.
For the compound `Cn1c(=O)c2c(CC(=O)Nc3nc(-c4ccc(F)c(C(F)(F)F)c4)cs3)csc2n(C)c1=O` [Example 6, 2-(1,3-Dimethyl-2,4-dioxo-1,2,3,4-tetrahydrothieno[2,3-d]pyrimidin-5-yl)-N-{4-[4-fluoro-3-(trifluoromethyl)phenyl]-1,3-thiazol-2-yl}acetamide], the inhibition at 1 µM in assay [1] (setting [3]) came out at 100%; in assay [2] (setting [6]), 99.7%. Besides, the inhibition at 10 µM is 100% in assay [1] (setting [4]) and 99.9% in assay [2] (setting [7]). Moreover, the values for the IC50 in assay [1] (setting [5]) and in assay [2] (setting [8]) were under 0.05 µM and 0.05 to 0.5 µM, respectively.
`Cn1c(=O)c2c(CC(=O)Nc3nc(-c4ccc(C(F)(F)F)cc4F)cs3)csc2n(C)c1=O` [Example 7, 2-(1,3-Dimethyl-2,4-dioxo-1,2,3,4-tetrahydrothieno[2,3-d]pyrimidin-5-yl)-N-{4-[2-fluoro-4-(trifluoromethyl)phenyl]-1,3-thiazol-2-yl}acetamide]: the half-maximal inhibitory concentration (IC50) in assay [1] is under 0.05 µM. Besides, in assay [1] (CHO), the inhibition at 1 µM worked out at 80.4% and the inhibition at 10 µM is 99.8%. In assay [2] (CHO), the inhibition at 1 µM worked out at 26.6% and the inhibition at 10 µM stood at 100%.
In the case of `Cn1c(=O)c2c(CC(=O)Nc3nc(-c4cc(F)cc(C(F)(F)F)c4)cs3)csc2n(C)c1=O` [Example 8, 2-(1,3-Dimethyl-2,4-dioxo-1,2,3,4-tetrahydrothieno[2,3-d]pyrimidin-5-yl)-N-{4-[3-fluoro-5-(trifluoromethyl)phenyl]-1,3-thiazol-2-yl}acetamide], the inhibition at 1 µM in assay [1] (setting [3]) was 89.8%; in assay [2] (setting [6]) it was 95.5%. Moreover, the inhibition at 10 µM in assay [1] (setting [4]) was found to be 99.9%; in assay [2] (setting [7]), 100%. Besides, the IC50 was under 0.05 µM in assay [1] (setting [5]) and 0.05 to 0.5 µM in assay [2] (setting [8]).
Take `Cn1c(=O)c2c(CC(=O)Nc3nc(-c4cccc(C(F)(F)F)c4F)cs3)csc2n(C)c1=O` [Example 9, 2-(1,3-Dimethyl-2,4-dioxo-1,2,3,4-tetrahydrothieno[2,3-d]pyrimidin-5-yl)-N-{4-[2-fluoro-3-(trifluoromethyl)phenyl]-1,3-thiazol-2-yl}acetamide]: the inhibition at 1 µM in assay [1] (setting [3]) worked out at 99.2%; in assay [2] (setting [6]), 100%. Also, the inhibition at 10 µM in assay [1] (setting [4]) came to 98.4%; in assay [2] (setting [7]), 100%. The results for the half-inhibitory concentration (IC50) in assay [1] (setting [5]) and in assay [2] (setting [8]) were under 0.05 µM and 0.05 to 0.5 µM, respectively.
As for `Cn1c(=O)c2c(CC(=O)Nc3nc(-c4ccc(F)c(OC(F)(F)F)c4)cs3)csc2n(C)c1=O` [Example 10, 2-(1,3-Dimethyl-2,4-dioxo-1,2,3,4-tetrahydrothieno[2,3-d]pyrimidin-5-yl)-N-{4-[4-fluoro-3-(trifluoromethoxy)phenyl]-1,3-thiazol-2-yl}acetamide], the inhibition at 1 µM was found to be 98.2% in assay [1] (setting [3]) and 96.1% in assay [2] (setting [6]). Also, the results for the inhibition at 10 µM in assay [1] (setting [4]) and in assay [2] (setting [7]) were 99.5% and 100%, respectively. Moreover, the figures for the IC50 in assay [1] (setting [5]) and in assay [2] (setting [8]) were under 0.05 µM and 0.05 to 0.5 µM, respectively.
On to `Cn1c(=O)c2c(CC(=O)Nc3nc(-c4ccc(C(F)(F)F)c(F)c4F)cs3)csc2n(C)c1=O` [Example 15, N-{4-[2,3-Difluoro-4-(trifluoromethyl)phenyl]-1,3-thiazol-2-yl}-2-(1,3-dimethyl-2,4-dioxo-1,2,3,4-tetrahydrothieno[2,3-d]pyrimidin-5-yl)acetamide], for which the inhibition at 1 µM in assay [1] (setting [3]) is 60%. The inhibition at 10 µM in assay [1] (setting [4]) is 96.8%.
On the same counts, the results for `Cc1sc2c(c1CC(=O)Nc1nc(-c3cccc(OC(F)(F)F)c3)c[nH]1)c(=O)n(C)c(=O)n2C` [Example 28, N-[4-(3-Trifluoromethoxyphenyl)-1H-imidazol-2-yl]-2-(1,3,6-trimethyl-2,4-dioxo-1,2,3,4-tetrahydrothieno[2,3-d]pyrimidin-5-yl)acetamide] are 10% and 46.8%.
For `Cc1sc2c(c1CC(=O)Nc1nc(-c3ccc(C(F)(F)F)c(F)c3)c[nH]1)c(=O)n(C)c(=O)n2C` [Example 29, N-{4-[3-Fluoro-4-(trifluoromethyl)phenyl]-1H-imidazol-2-yl}-2-(1,3,6-trimethyl-2,4-dioxo-1,2,3,4-tetrahydrothieno[2,3-d]pyrimidin-5-yl)acetamide], the inhibition at 1 µM in assay [1] (setting [3]) worked out at 91.7%. Also, the inhibition at 10 µM in assay [1] (setting [4]) turned out to be 98%. For the same compound, the 50% inhibitory concentration (IC50) in assay [1] (setting [5]) is 0.05 to 0.5 µM.
Consider `Cn1c(=O)c2c(CC(=O)Nc3cc(-c4ccc(Cl)cc4)no3)csc2n(C)c1=O` [Example 38, N-[3-(4-Chlorophenyl)isoxazol-5-yl]-2-(1,3-dimethyl-2,4-dioxo-1,2,3,4-tetrahydrothieno[2,3-d]pyrimidin-5-yl)acetamide], for which the inhibition at 1 µM in assay [1] (setting [3]) came out at 25%. For the same compound, the inhibition at 10 µM in assay [1] (setting [4]) worked out at 87.9%.
`Cn1c(=O)c2c(CC(=O)Nc3cc(-c4ccc(Br)cc4)on3)csc2n(C)c1=O` [Example 39, N-[5-(4-Bromophenyl)isoxazol-3-yl]-2-(1,3-dimethyl-2,4-dioxo-1,2,3,4-tetrahydrothieno[2,3-d]pyrimidin-5-yl)acetamide]: the inhibition at 1 µM in assay [1] (setting [3]) is 47.8%. Besides, the inhibition at 10 µM in assay [1] (setting [4]) came out at 78.6%.
On to `Cn1c(=O)c2c(CC(=O)Nc3ccn(-c4ccc(Br)cc4)n3)csc2n(C)c1=O` [Example 40, N-[1-(4-Bromophenyl)-1H-pyrazol-3-yl]-2-(1,3-dimethyl-2,4-dioxo-1,2,3,4-tetrahydrothieno[2,3-d]pyrimidin-5-yl)acetamide], for which the inhibition at 1 µM in assay [1] (setting [3]) was 99.9%. Besides, the inhibition at 10 µM in assay [1] (setting [4]) worked out at 100%. Besides, the 50% inhibitory concentration (IC50) in assay [1] (setting [5]) is under 0.05 µM.
`Cn1c(=O)c2c(CC(=O)Nc3nnc(-c4ccc(Br)cc4)s3)csc2n(C)c1=O` [Example 42, N-[5-(4-Bromophenyl)-1,3,4-thiadiazol-2-yl]-2-(1,3-dimethyl-2,4-dioxo-1,2,3,4-tetrahydrothieno[2,3-d]pyrimidin-5-yl)acetamide]: the inhibition at 1 µM in assay [1] (setting [3]) amounted to 9.74%. The inhibition at 10 µM in assay [1] (setting [4]) was determined as 74.6%.
On the same counts, the results for `Cn1c(=O)c2c(CC(=O)Nc3nccc(-c4ccc(Br)cc4)n3)csc2n(C)c1=O` [Example 43, N-[4-(4-Bromophenyl)pyrimidin-2-yl]-2-(1,3-dimethyl-2,4-dioxo-1,2,3,4-tetrahydrothieno[2,3-d]pyrimidin-5-yl)acetamide] are 30.5% and 4.42%.

For orientation: inhibition means the relative decrease from the control value, in per cent. One may read the IC50 as the concentration that inhibits the measured activity by half.
